From ChEMBL document CHEMBL6120983, “Synthesis and Structure-Activity Relationship of Covalent Inhibitors of SARS-CoV-2 Papain-Like Protease with Antiviral Potency” (Bioorg Med Chem Lett, 2025)

Experiments:
[1] = Tlast in dog at 20 mg/kg, po; assay type: ADME, organism-based, Canis lupus familiaris; conditions: in vivo
[2] = MRT (0 to last) in dog at 20 mg/kg, po; assay type: ADME, organism-based, Canis lupus familiaris; conditions: in vivo
[3] = Cytotoxicity against human A549-ACE2 cells assessed as reduction in cell viability; assay type: toxicity, cell-based
[4] = Cmax in dog at 20 mg/kg, po; assay type: ADME, organism-based, Canis lupus familiaris; conditions: in vivo
SARS-CoV-2 = assay: Antiviral activity against SARS CoV-2 infected in human HeLa-ACE2 assessed as reduction in viral replication incubated for 24 hrs; assay type: functional; conditions: Severe acute respiratory syndrome coronavirus 2, HeLa-ACE2
[5] = Cmax in dog at 2 mg/kg, iv; assay type: ADME, organism-based, Canis lupus familiaris; conditions: in vivo
[6] = Clearance in dog at 2 mg/kg, iv; assay type: ADME, organism-based, Canis lupus familiaris; conditions: in vivo
[7] = MRT (0 to last) in dog at 2 mg/kg, iv; assay type: ADME, organism-based, Canis lupus familiaris; conditions: in vivo
[8] = Lipophilicity, logD of compound; assay type: physicochemical; conditions: octanol/water
[9] = Clearance in dog at 20 mg/kg, po; assay type: ADME, organism-based, Canis lupus familiaris; conditions: in vivo
[10] = AUC (0 to last) in dog at 2 mg/kg, iv; assay type: ADME, organism-based, Canis lupus familiaris; conditions: in vivo
[11] = AUC (0 to last) in dog at 20 mg/kg, po; assay type: ADME, organism-based, Canis lupus familiaris; conditions: in vivo
[12] = Plasma protein binding in human; assay type: ADME, cell-free; conditions: read-out: PPB (converted)
[13] = Intrinsic clearance in mouse liver microsomes; assay type: ADME, Microsome; conditions: read-out: CLH
[14] = Tlast in dog at 2 mg/kg, iv; assay type: ADME, organism-based, Canis lupus familiaris; conditions: in vivo
[15] = Half life in dog at 2 mg/kg, iv; assay type: ADME, organism-based, Canis lupus familiaris; conditions: in vivo
[16] = Volume of distribution in dog at 2 mg/kg, iv; assay type: ADME, organism-based, Canis lupus familiaris; conditions: in vivo
[17] = Oral bioavailability in dog at 20 mg/kg; assay type: ADME, organism-based, Canis lupus familiaris; conditions: in vivo
[18] = Half life in dog at 20 mg/kg, po; assay type: ADME, organism-based, Canis lupus familiaris; conditions: in vivo
[19] = target: Replicase polyprotein 1ab (Severe acute respiratory syndrome coronavirus 2, UniProt P0DTD1); assay: Inhibition of SARS-CoV-2 papain-like protease using Z-Arg-Leu-Arg-Gly-Gly-AMC as substrate incubated for 15 mins
[20] = Ratio of CC50 for cytotoxicity against human A549-ACE2 cells assessed as reduction in cell viability to EC90 for antiviral activity against SARS CoV-2 infected in human HeLa-ACE2 assessed as reduction in viral replication; assay type: toxicity, cell-based

COC(=O)/C=C/C(=O)NNC(=O)CCc1ccccc1C(=O)N[C@H](C)c1cccc2ccccc12
Tlast [1]: 8 h | MRT last [2]: 97.2 min | CC50 ([3]; a549-ace2): 29.9 µM | Cmax [4]: 84 ng/mL | EC90 (SARS-CoV-2): 0.49 µM | Cmax [5]: 2840 ng/mL | clearance [6]: 107 mL/min/kg | MRT last [7]: 6.84 min | logD [8]: 3 | CL/F [9]: 3710 mL/min/kg | AUC(0-t) [10]: 315 ng·h/mL | AUC(0-t) [11]: 91 ng·h/mL | fraction unbound [12]: 0.049 | microsomal CLint [13]: 144 µL/min/mg | Tlast [14]: 1 h | half-life [15]: 6 min | Vd [16]: 0.742 L/kg | bioavailability [17]: 2.9% | half-life [18]: 72.6 min

C[C@@H](NC(=O)c1ccccc1CCC(=O)NNC(=O)CC#N)c1cccc2ccccc12
CC50 ([3]; A549-ACE2 cells): > 99 µM | EC90 (SARS-CoV-2): > 9.6 µM | IC50 [19]: 9.5 µM

C[C@@H](NC(=O)c1ccccc1CCC(=O)NNC(=O)/C=C/C(=O)OCc1nccs1)c1cccc2ccccc12
CC50 ([3]; a549-ace2): 16 µM | EC90 (SARS-CoV-2): 9.23 µM | IC50 [19]: 0.34 µM

COC(=O)/C=C\C(=O)NNC(=O)CCc1ccccc1C(=O)N[C@H](C)c1cccc2ccccc12
CC50 ([3]; a549-ace2): 34.6 µM | EC90 (SARS-CoV-2): 0.71 µM

C[C@@H](NC(=O)c1ccccc1CCC(=O)NNC(=O)/C=C/C(=O)OCC1CCCC1)c1cccc2ccccc12
CC50 ([3]; a549-ace2): 69.5 µM | EC90 (SARS-CoV-2): 0.31 µM | IC50 [19]: 1.62 µM

COC(=O)/C=C/C(=O)NNC(=O)CCc1ccccc1C(=O)N[C@H](C)c1cccc(-c2cn[nH]c2)c1
CC50 ([3]; A549-ACE2 cells): > 99 µM | EC90 (SARS-CoV-2): 3.58 µM | IC50 [19]: 0.21 µM

C[C@@H](NC(=O)c1ccccc1CCC(=O)NNC(=O)/C=C/C(=O)OCCC(F)(F)F)c1cccc2ccccc12
CC50 ([3]; a549-ace2): 61.9 µM | EC90 (SARS-CoV-2): 1.26 µM | IC50 [19]: 0.25 µM

C[C@@H](NC(=O)c1ccccc1CCC(=O)NNC(=O)/C=C/C(=O)OC1CCCCC1)c1cccc2ccccc12
CC50 ([3]; A549-ACE2 cells): > 99 µM | EC90 (SARS-CoV-2): 0.41 µM | IC50 [19]: 0.96 µM

CCOC(=O)/C=C/C(=O)NNC(=O)CCc1ccccc1C(=O)N[C@H](C)c1cccc2ccccc12
CC50 ([3]; a549-ace2): 44.7 µM | EC90 (SARS-CoV-2): 0.31 µM | IC50 [19]: 0.19 µM

C[C@@H](NC(=O)c1ccccc1CCC(=O)NNC(=O)/C=C/C(=O)N(C)C)c1cccc2ccccc12
CC50 ([3]; A549-ACE2 cells): > 99 µM | EC90 (SARS-CoV-2): > 9.6 µM | IC50 [19]: 18.5 µM

C=C(CC(=O)NNC(=O)CCc1ccccc1C(=O)N[C@H](C)c1cccc2ccccc12)C(=O)OC
CC50 ([3]; a549-ace2): 6.1 µM | EC90 (SARS-CoV-2): 8.3 µM | IC50 [19]: 17.9 µM

COC(=O)/C=C/C(=O)NNC(=O)CCc1ccccc1C(=O)N[C@H](C)c1cccc(C2=CCOCC2)c1
CC50 ([3]; a549-ace2): 48.4 µM | EC90 (SARS-CoV-2): 1.24 µM | IC50 [19]: 0.29 µM

COC(=O)/C=C/CNC(=O)CCc1ccccc1C(=O)N[C@H](C)c1cccc2ccccc12
CC50 ([3]; a549-ace2): 87.9 µM | EC90 (SARS-CoV-2): > 9.6 µM | IC50 [19]: 26.2 µM

C[C@@H](NC(=O)c1ccccc1CCC(=O)NNC(=O)C(F)Cl)c1cccc2ccccc12 (stereo not given in full)
CC50 ([3]; A549-ACE2 cells): > 99 µM | EC90 (SARS-CoV-2): > 9.6 µM | IC50 [19]: 15.8 µM

C[C@@H](NC(=O)c1ccccc1CCC(=O)NNC(=O)/C=C/C(=O)OCc1ncccn1)c1cccc2ccccc12
CC50 ([3]; a549-ace2): 30.1 µM | EC90 (SARS-CoV-2): 3.03 µM | IC50 [19]: 0.35 µM

CC(=O)C(=O)NNC(=O)CCc1ccccc1C(=O)N[C@H](C)c1cccc2ccccc12
CC50 ([3]; A549-ACE2 cells): > 99 µM | EC90 (SARS-CoV-2): > 9.6 µM | IC50 [19]: 37.3 µM

CCCCOC(=O)/C=C/C(=O)NNC(=O)CCc1ccccc1C(=O)N[C@H](C)c1cccc2ccccc12
CC50 ([3]; A549-ACE2 cells): > 99 µM | EC90 (SARS-CoV-2): 0.18 µM | IC50 [19]: 0.24 µM

CC#CC(=O)NNC(=O)CCc1ccccc1C(=O)N[C@H](C)c1cccc2ccccc12
CC50 ([3]; a549-ace2): 68.9 µM | EC90 (SARS-CoV-2): > 9.6 µM | IC50 [19]: 11.3 µM

C[C@@H](NC(=O)c1ccccc1CCC(=O)NNC(=O)/C=C/C(=O)OC(C)(C)C)c1cccc2ccccc12
CC50 ([3]; a549-ace2): 64 µM | EC90 (SARS-CoV-2): 1.75 µM | IC50 [19]: 0.24 µM

C[C@@H](NC(=O)c1ccccc1CCC(=O)NNC(=O)/C=C/C(=O)OCc1ccccc1)c1cccc2ccccc12
CC50 ([3]; a549-ace2): 98.9 µM | EC90 (SARS-CoV-2): 0.78 µM | IC50 [19]: 0.52 µM

CC(=O)/C=C/C(=O)NNC(=O)CCc1ccccc1C(=O)N[C@H](C)c1cccc2ccccc12
CC50 ([3]; A549-ACE2 cells): > 99 µM | EC90 (SARS-CoV-2): 12.9 µM | IC50 [19]: 27.2 µM

C[C@@H](NC(=O)c1ccccc1CCC(=O)NNC(=O)/C=C/C(=O)O)c1cccc2ccccc12
CC50 ([3]; A549-ACE2 cells): > 99 µM | EC90 (SARS-CoV-2): > 9.6 µM | IC50 [19]: 2.6 µM

CNC(=O)/C=C/C(=O)NNC(=O)CCc1ccccc1C(=O)N[C@H](C)c1cccc2ccccc12
CC50 ([3]; A549-ACE2 cells): > 99 µM | EC90 (SARS-CoV-2): > 9.6 µM | IC50 [19]: 16.2 µM

C[C@@H](NC(=O)c1ccccc1CCC(=O)NNC(=O)/C=C/C#N)c1cccc2ccccc12
CC50 ([3]; a549-ace2): 13.1 µM | EC90 (SARS-CoV-2): 15.2 µM | IC50 [19]: 1.9 µM

COc1ccc(COC(=O)/C=C/C(=O)NNC(=O)CCc2ccccc2C(=O)N[C@H](C)c2cccc3ccccc23)cc1OC
CC50 ([3]; A549-ACE2 cells): > 99 µM | EC90 (SARS-CoV-2): 0.26 µM | IC50 [19]: 1.01 µM

C[C@@H](NC(=O)c1ccccc1CCC(=O)NNC(=O)COC(F)(F)F)c1cccc2ccccc12
CC50 ([3]; A549-ACE2 cells): > 99 µM | EC90 (SARS-CoV-2): > 9.6 µM | IC50 [19]: 52.9 µM

C[C@@H](NC(=O)c1ccccc1CCC(=O)NNC(=O)/C=C/C(=O)OC1CCC1)c1cccc2ccccc12
CC50 ([3]; a549-ace2): 64.8 µM | EC90 (SARS-CoV-2): 0.27 µM | IC50 [19]: 0.33 µM

CCOC(=O)/C=C/C(=O)NNC(=O)CCc1ccccc1C(=O)N[C@H](C)c1cccc(-c2cccs2)c1
Tlast [1]: 8 h | MRT last [2]: 176 min | Cmax [4]: 20 ng/mL | EC90 (SARS-CoV-2): 0.21 µM | Cmax [5]: 3220 ng/mL | clearance [6]: 95.1 mL/min/kg | MRT last [7]: 7.02 min | CL/F [9]: 5090 mL/min/kg | AUC(0-t) [10]: 362 ng·h/mL | AUC(0-t) [11]: 62 ng·h/mL | fraction unbound [12]: 0.014 | microsomal CLint [13]: 618 µL/min/mg | selectivity ratio [20]: 56.7 | Tlast [14]: 1 h | half-life [15]: 6.48 min | Vd [16]: 0.681 L/kg | bioavailability [17]: 1.9% | IC50 [19]: 0.14 µM | half-life [18]: 157 min

COC(=O)/C=C/C(=O)NNC(=O)CCc1ccccc1C(=O)N[C@H](C)c1cccc(-c2cc3ccccc3o2)c1
CC50 ([3]; a549-ace2): 59 µM | EC90 (SARS-CoV-2): 0.12 µM | IC50 [19]: 0.25 µM

CC(C)OC(=O)/C=C/C(=O)NNC(=O)CCc1ccccc1C(=O)N[C@H](C)c1cccc2ccccc12
CC50 ([3]; a549-ace2): 59.3 µM | EC90 (SARS-CoV-2): 0.56 µM | IC50 [19]: 0.24 µM

COC(=O)/C=C/C(=O)NNC(=O)CCc1ccccc1C(=O)N[C@H](C)c1cccc(-c2cncnc2)c1
CC50 ([3]; A549-ACE2 cells): > 99 µM | EC90 (SARS-CoV-2): 9.55 µM | IC50 [19]: 0.35 µM

C[C@@H](NC(=O)c1ccccc1CCC(=O)NNC(=O)/C=C/C(=O)OCc1ccc2ccccc2n1)c1cccc2ccccc12
CC50 ([3]; a549-ace2): 13.6 µM | EC90 (SARS-CoV-2): 1.14 µM | IC50 [19]: 0.45 µM

C[C@@H](NC(=O)c1ccccc1CCC(=O)NNC(=O)/C=C/c1ncco1)c1cccc2ccccc12
CC50 ([3]; A549-ACE2 cells): > 99 µM | EC90 (SARS-CoV-2): > 9.6 µM | IC50 [19]: 44.5 µM
